From PMC7339037 (Journal of medicinal chemistry, 2017)

Assays:
Solubility = assay type: physicochemical
[1] = target: RPA (replication protein A) (Homo sapiens, UniProt P27694); experiment: RPA-based EMSA; assay type: binding; details: at 10 μM
full length human XPA = full length human XPA (Homo sapiens, UniProt P23025); experiment: EMSA, binding of full length human XPA to a cisplatin-modified DNA
full length human XPA, sequence (P23025 whole entry): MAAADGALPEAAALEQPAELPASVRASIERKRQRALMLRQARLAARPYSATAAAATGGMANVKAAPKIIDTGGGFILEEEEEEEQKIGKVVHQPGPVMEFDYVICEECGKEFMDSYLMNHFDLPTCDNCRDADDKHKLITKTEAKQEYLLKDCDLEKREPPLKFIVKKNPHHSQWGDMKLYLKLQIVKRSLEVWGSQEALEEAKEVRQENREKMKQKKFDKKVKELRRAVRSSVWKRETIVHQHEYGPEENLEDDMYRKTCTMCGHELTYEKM

RPA (replication protein A), sequence (P27694 whole entry): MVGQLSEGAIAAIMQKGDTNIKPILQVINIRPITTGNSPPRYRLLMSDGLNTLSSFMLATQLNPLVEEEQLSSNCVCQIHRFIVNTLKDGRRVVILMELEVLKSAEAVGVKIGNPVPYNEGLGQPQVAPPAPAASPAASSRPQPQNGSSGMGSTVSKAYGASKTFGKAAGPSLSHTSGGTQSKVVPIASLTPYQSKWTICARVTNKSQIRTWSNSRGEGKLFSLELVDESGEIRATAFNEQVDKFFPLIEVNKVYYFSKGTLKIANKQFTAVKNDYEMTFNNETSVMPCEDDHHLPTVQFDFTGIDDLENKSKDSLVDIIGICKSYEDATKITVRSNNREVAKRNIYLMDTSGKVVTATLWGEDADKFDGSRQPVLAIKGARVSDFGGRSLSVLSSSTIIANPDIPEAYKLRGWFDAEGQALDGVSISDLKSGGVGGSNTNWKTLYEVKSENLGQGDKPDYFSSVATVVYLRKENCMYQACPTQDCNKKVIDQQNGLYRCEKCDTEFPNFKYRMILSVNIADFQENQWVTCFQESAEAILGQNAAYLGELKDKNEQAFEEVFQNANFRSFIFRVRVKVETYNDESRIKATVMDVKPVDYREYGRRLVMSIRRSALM

Row | SMILES | solubility (in words) (Solubility) | RPA inhibition [1] | XPA inhibitory activity (in words) (full length human XPA)
1 | CC1=NN(c2ccc(Cl)c(C(=O)O)c2)C(=O)/C1=C\c1ccc(-c2ccc(Cl)c(C(=O)OCc3ccccc3)c2)o1 [Compound 22] | poor solubility | no RPA inhibition | –
2 | CC1=NN(c2ccc(Cl)c(C(=O)O)c2)C(=O)/C1=C\c1ccc(-c2ccc(Cl)c(C(=O)OCc3ccccc3Cl)c2)o1 [Compound 24] | poor solubility | no RPA inhibition | –
3 | CCOC(=O)c1cccc(N2N=C(C)/C(=C/c3ccc(-c4ccc(Cl)c(C(=O)NCc5ccc(F)cc5)c4)o3)C2=O)c1 [Compound 33a, (Z)-Ethyl 3-(4-((5-(4-Chloro-3-((4-fluorobenzyl)carbamoyl)phenyl)furan-2-yl)-methylene)-3-methyl-5-oxo-4,5-dihydro-1H-pyrazol-1-yl)benzoate] | – | – | dramatically decreased or almost no XPA inhibitory activity
4 | CC1=NN(c2cccc(C(=O)O)c2)C(=O)/C1=C\c1ccc(-c2ccc(Cl)c(C(=O)NCc3ccc(F)cc3)c2)o1 [Compound 34a, (Z)-3-(4-((5-(4-Chloro-3-((4-fluorobenzyl)carbamoyl)phenyl)furan-2-yl)methylene)-3-methyl-5-oxo-4,5-dihydro-1H-pyrazol-1-yl)-benzoic Acid] | dramatically increased solubility | – | –
5 | CC1=NN(c2cccc(C(=O)NCC3CC3)c2)C(=O)/C1=C\c1ccc(-c2ccc(Cl)c(C(=O)NCC3CC3)c2)o1 [Compound 34e, (Z)-2-Chloro-N-(cyclopropylmethyl)-5-(5-((1-(3-((cyclopropylmethyl)carbamoyl)phenyl)-3-methyl-5-oxo-1H-pyrazol-4(5H)-ylidene)methyl)furan-2-yl)-benzamide] | – | – | dramatically decreased or almost no XPA inhibitory activity
6 | CC1=NN(c2ccc(C(=O)O)cc2)C(=O)/C1=C\c1ccc(-c2ccc(Cl)c(C(=O)NCc3ccc(F)cc3)c2)o1 [Compound 34i, (Z)-4-(4-((5-(4-Chloro-3-((4-fluorobenzyl)carbamoyl)phenyl)-furan-2-yl)methylene)-3-methyl-5-oxo-4,5-dihydro-1H-pyrazol-1-yl)benzoic Acid] | – | no RPA inhibition | –
7 | CC1=NN(c2ccc(C(=O)O)cc2)C(=O)/C1=C\c1ccc(-c2ccc(Cl)c(C(=O)NCC3CC3)c2)o1 [Compound 34k, (Z)-4-(4-((5-(4-Chloro-3-((cyclopropylmethyl)carbamoyl)phenyl)-furan-2-yl)methylene)-3-methyl-5-oxo-4,5-dihydro-1H-pyrazol-1-yl)benzoic Acid] | – | no RPA inhibition | –
8 | CC1=NN(c2cccc(C(=O)O)c2)C(=O)/C1=C\c1ccc(-c2ccc(C(=O)NCc3ccc(F)cc3)cc2)o1 [Compound 39a, (Z)-3-(4-((5-(4-((4-Fluorobenzyl)carbamoyl)phenyl)furan-2-yl)-methylene)-3-methyl-5-oxo-4,5-dihydro-1H-pyrazol-1-yl)benzoic Acid] | – | – | no XPA inhibitory activity
9 | CC1=NN(c2cccc(C(=O)O)c2)C(=O)/C1=C\c1ccc(-c2ccc(C(=O)NCC3CC3)cc2)o1 [Compound 39b, (Z)-3-(4-((5-(4-((Cyclopropylmethyl)carbamoyl)phenyl)furan-2-yl)methylene)-3-methyl-5-oxo-4,5-dihydro-1H-pyrazol-1-yl)benzoic Acid] | – | – | no XPA inhibitory activity
